From US6743583B2, “Identification of drugs and drug targets by detection of the stress response” (priority 2000, dated 2004)
Read-outs that look alike come from different tables or passages of the source.

Tests used:
Wildtype strain [1] = assay: HSP26 promoter GFP-uv reporter stress response, fluorimeter; format: cell-based, Saccharomyces cerevisiae; parameters: key: F = fluorescent activity from hsp reporter construct, indicating stress response is induced; NF = no fluorescence, no induction of stress response; settings: predicted expectations
From the text: (§1) Stress response gene reporter constructs are generally constructed as follows: approximately 500 bp to approximately 1,000 bp or more region upstream of the first start codon of the stress gene of interest (the region encompassing the stress response gene promoter) is fused to the coding region of a reporter polypeptide (e.g., GFP-uv in pRS316 (Sikorski and Hieter (1989) Genetics 122(1):19-27, Clontech). In a specific exemplary construct, approximately 500 bp of the sequence upstream of the hsp26 gene were ligated to the coding region of GFP-uv in pRS316 to provide for expression of the GFP-uv reporter polypeptide under control of the HSP26 promoter.
(§2) The above-described HSP26 construct and a control construct (containing no upstream HSP26 promoter sequence) is transformed into 4 strains: a wildtype strain and strains heterozygous for ALG7, HIS3, and TUB2. The his3 heterozygous strain is sensitive to 3-amino triazole; the alg7 heterozygous strain is sensitive to tunicamycin; and the tub2 heterozygous strain is sensitive to benomyl. The expression of hsp26 activity is then monitored using a fluorimeter. Comparisons (with predicted expectations) are as follows: […]

his3 heterozygous strain = settings: cited from earlier work
tub2 heterozygote = assay: HSP26 promoter GFP-uv reporter stress response, fluorimeter; format: cell-based, Saccharomyces cerevisiae; parameters: key: F = fluorescent activity from hsp reporter construct, indicating stress response is induced; NF = no fluorescence, no induction of stress response; settings: predicted expectations
From the text: as §1
(§3) 80% of all heterozygous deletion strains of Saccharomyces cerevisiae have been constructed. Heterozygous deletion strains were generated using homologous gene transplacement (Rothstein, R. (1991) Meth. Enzymol. 194:281-301) in wild-type diploid strains using standard methods. The resulting heterozygotes carry a deletion in one of the two copies of a given gene.
as §2

his3 heterozygote = assay: as above; format: cell-based, Saccharomyces cerevisiae; parameters: key: F = fluorescent activity from hsp reporter construct, indicating stress response is induced; NF = no fluorescence, no induction of stress response; settings: predicted expectations
From the text: as §1, §3, §2

alg7 heterozygote = assay: as above; format: cell-based, Saccharomyces cerevisiae; parameters: key: F = fluorescent activity from hsp reporter construct, indicating stress response is induced; NF = no fluorescence, no induction of stress response; settings: predicted expectations
From the text: as §1, §3, §2

[2] = tested on: yeast stress response genes; settings: published data, cited from earlier work
[3] = tested on: yeast stress response genes; settings: MMS 0.1%; published data; cited from earlier work
tub2 heterozygous strain = settings: cited from earlier work
ymr007w strain = settings: previously shown, Giaever et al. 1999; cited from earlier work
Wildtype strain [4] = assay: Microarray fold transcriptional induction of stress response genes; format: cell-based, Saccharomyces cerevisiae
Procedure: (§4) In order to identify stress response genes suitable for use in the methods of the present invention, the induction of various stress response genes was tested using microarrays. Three 50 ml cultures were grown at 30° C., a wildtype strain, an alg7 heterozygous strain, and a ymr007w heterozygous strain (the ymr007w strain has been previously shown to be sensitive to tunicamycin, see Giaever, G. et al. (1999) Nature Genet. 21(3):278-283). The wildtype strain was grown in the absence of drug as well as in the presence of […] tunicamycin at an O.D.600 of 1, or approximately 2×10^7 cells/ml for one hour. The alg7 and ymr007w heterozygotes were grown in the presence of […] tunicamycin at an O.D.600 of 1, or approximately 2×10^7 cells/ml for 1 hour. mRNA was then collected from all four samples using standard techniques. cDNA was then prepared from […] of polyadenylated RNA from each sample, using a dT21 primer and Superscript II reverse transcriptase (GibcoBRL) according to manufacturer's recommendation. cDNA was fragmented using DNAseI (GibcoBRL), biotinylated using ddATP (NEN) and Terminal Transferase (Boehringer), and hybridized to yeast full genome arrays (Affymetrix) as described in L. Wodicka et al. (1997) Nature Biotechnol. 15, 1359-1367. Data was analyzed using Affymetrix software.
The fold induction of the indicated stress response gene is relative to expression levels in the absence of exposure to the indicated stimuli for the wildtype strain.

alg7 heterozygous strain [5] = settings: cited from earlier work
alg7 heterozygous strain [6] = assay: Microarray fold transcriptional induction of stress response genes; format: cell-based, Saccharomyces cerevisiae; settings: alg7 heterozygote, tunicamycin 0.6 μM, 1 hr, relative to wildtype no drug
Procedure: as §4
(§5) In other experiments, the alg 7 and vmr007 heterozygous deletion strains were tested for induction of the stress response in the presence of 0.6 μM tunicamycin for 1 hr (for detailed methods see Example 4). The numbers indicate the fold induction (positive values) or the fold repression (negative values) relative to that of wildype expression in the absence of drug.

[7] = tested on: ymr007w heterozygous strain; assay: as above; format: cell-based, Saccharomyces cerevisiae; settings: ymr007w heterozygote, tunicamycin 0.6 μM, 1 hr, relative to wildtype no drug
Procedure: as §4, §5

[8] = TUN 0.6 μM, wildtype, relative to no drug
[9] = Wildtype, tunicamycin 0.6 μM, 1 hr, relative to wildtype no drug (Table 9)

## Nc1nc[nH]n1 [3-amino triazole, 3-amino-triazole]
Wildtype strain [1]
  fluorescent activity from hsp26 reporter construct: F
his3 heterozygous strain
  sensitivity of strain to drug: sensitive
tub2 heterozygote
  fluorescent activity from hsp26 reporter construct: F
his3 heterozygote
  fluorescent activity from hsp26 reporter construct: NF
alg7 heterozygote
  fluorescent activity from hsp26 reporter construct: F

## C=CC[C@@H]1/C=C(\C)C[C@H](C)C[C@H](OC)[C@H]2O[C@@](O)(C(=O)C(=O)N3CCCC[C@H]3C(=O)O[C@H](/C(C)=C/[C@@H]3CC[C@@H](O)[C@H](OC)C3)[C@H](C)[C@@H](O)CC1=O)[C@H](C)C[C@@H]2OC [FK506]
[2]; FK506 50 μM
  fold induction of DDR48 (YMR173w): 1 fold
  fold induction of HSP10 (YOR020C): 1 fold
  fold induction of HSP12 (YFL014W): 1 fold
  fold induction of HSP26 (YBR072W): 7.1 fold
  fold induction of HSP30 (YCR021C): 2.3 fold
  fold induction of HSP42 (YDR171w): 8.7 fold
  fold induction of HSP60 (YLR259C): 1 fold
  fold induction of HSP78 (YDR258C): 1 fold
  fold induction of HSP82 (YPL240C): 1 fold
  fold induction of HSP104 (YLL026W): 1 fold
  fold induction of SSA1 (YAL005C): 1 fold
  fold induction of UBC5 (YDR059c): 1.1 fold
[2]; FK506 50 μm
  fold induction of AMS1 (YGL156W): 2.2 fold
  fold induction of GFA1 (YKL104C): 1 fold
  fold induction of GSC2 (YGR032W): 1.1 fold
  fold induction of HXT5 (YHR096C): 1.6 fold
  fold induction of ISF1 (YMR081C): 5.4 fold
  fold induction of PAI3 (YMR174C): 1 fold
  fold induction of PRY1 (YJL079C): 1 fold
  fold induction of PUT1 (YLR142W): 7.6 fold
  fold induction of SNZ3 (YFL059W): 6.3 fold
  fold induction of TSI1 (YLR178C): 1.3 fold
  fold induction of YBL049W: 6.7 fold
  fold induction of YDR018C: 8.9 fold
  fold induction of YFL030W: 2 fold
  fold induction of YFR026C: 3.7 fold
  fold induction of YGR043C: 2.1 fold
  fold induction of YIL042C: 2.7 fold
  fold induction of YIL117C: 1 fold
  fold induction of YJL144W: 7.6 fold
  fold induction of YKL107W: 2.5 fold
  fold induction of YLR053C: 5.5 fold
  fold induction of YLR080W: 5.5 fold
  fold induction of YLR194C: 1 fold
  fold induction of YMR040W: 1.6 fold
  fold induction of YMR090W: 1.2 fold
  fold induction of YMR107W: 5.9 fold
  fold induction of YNL194C: 6.3 fold
  fold induction of YPS3 (YLR121C): 2.5 fold

## COS(C)(=O)=O [MMS]
[3]
  fold induction of AMS1 (YGL156W): 3.3 fold
  fold induction of DDR48 (YMR173w): 6 fold
  fold induction of GFA1 (YKL104C): 3.3 fold
  fold induction of GSC2 (YGR032W): 2.5 fold
  fold induction of HSP10 (YOR020C): 1 fold
  fold induction of HSP12 (YFL014W): 4.2 fold
  fold induction of HSP26 (YBR072W): 2.6 fold
  fold induction of HSP30 (YCR021C): 2 fold
  fold induction of HSP42 (YDR171w): 1.5 fold
  fold induction of HSP60 (YLR259C): 1 fold
  fold induction of HSP78 (YDR258C): 2.8 fold
  fold induction of HSP82 (YPL240C): 1.8 fold
  fold induction of HSP104 (YLL026W): 2 fold
  fold induction of HXT5 (YHR096C): 1.9 fold
  fold induction of ISF1 (YMR081C): 2.9 fold
  fold induction of PAI3 (YMR174C): 5.1 fold
  fold induction of PRY1 (YJL079C): 1 fold
  fold induction of PUT1 (YLR142W): 1 fold
  fold induction of SNZ3 (YFL059W): 2.3 fold
  fold induction of SSA1 (YAL005C): 6.4 fold
  fold induction of TSI1 (YLR178C): 5.7 fold
  fold induction of UBC5 (YDR059c): 5.5 fold
  fold induction of YBL049W: 1 fold
  fold induction of YDR018C: 1 fold
  fold induction of YFL030W: 5 fold
  fold induction of YFR026C: 2.2 fold
  fold induction of YGR043C: 3.5 fold
  fold induction of YIL042C: 1.4 fold
  fold induction of YIL117C: 2.3 fold
  fold induction of YJL144W: 1.6 fold
  fold induction of YKL107W: 1.7 fold
  fold induction of YLR053C: 1 fold
  fold induction of YLR080W: 5.6 fold
  fold induction of YLR194C: 1 fold
  fold induction of YMR040W: 1.5 fold
  fold induction of YMR090W: 8 fold
  fold induction of YMR107W: 1 fold
  fold induction of YNL194C: 2.9 fold
  fold induction of YPS3 (YLR121C): 1 fold

## CCCCNC(=O)n1c(NC(=O)OC)nc2ccccc21 [benomyl]
Wildtype strain [1]
  fluorescent activity from hsp26 reporter construct: F
tub2 heterozygote
  fluorescent activity from hsp26 reporter construct: NF
his3 heterozygote
  fluorescent activity from hsp26 reporter construct: F
alg7 heterozygote
  fluorescent activity from hsp26 reporter construct: F
tub2 heterozygous strain
  sensitivity of strain to drug: sensitive

## tunicamycin
ymr007w strain
  sensitivity of strain to drug: sensitive
Wildtype strain [1]
  fluorescent activity from hsp26 reporter construct: F
tub2 heterozygote
  fluorescent activity from hsp26 reporter construct: F
his3 heterozygote
  fluorescent activity from hsp26 reporter construct: F
alg7 heterozygote
  fluorescent activity from hsp26 reporter construct: NF
Wildtype strain [4]; [8]
  fold induction of AMS1 (YGL156W): 20 fold
  fold induction of DDR48 (YMR173w): 4.3 fold
  fold induction of GFA1 (YKL104C): 11.2 fold
  fold induction of GSC2 (YGR032W): 9.2 fold
  fold induction of HSP10 (YOR020C): 2 fold
  fold induction of HSP12 (YFL014W): 2.9 fold
  fold induction of HSP26 (YBR072W): 18 fold
  fold induction of HSP30 (YCR021C): 2 fold
  fold induction of HSP42 (YDR171w): 6 fold
  fold induction of HSP60 (YLR259C): 1 fold
  fold induction of HSP78 (YDR258C): 6.5 fold
  fold induction of HSP82 (YPL240C): 2.8 fold
  fold induction of HSP104 (YLL026W): 2 fold
  fold induction of HXT5 (YHR096C): 200 fold
  fold induction of ISF1 (YMR081C): 3.5 fold
  fold induction of PAI3 (YMR174C): 6.1 fold
  fold induction of PRY1 (YJL079C): 13 fold
  fold induction of PUT1 (YLR142W): 25 fold
  fold induction of SNZ3 (YFL059W): 25 fold
  fold induction of SSA1 (YAL005C): 1 fold
  fold induction of TSI1 (YLR178C): 6.2 fold
  fold induction of UBC5 (YDR059c): 2.1 fold
  fold induction of YBL049W: 15 fold
  fold induction of YDR018C: 7.5 fold
  fold induction of YFL030W: 11 fold
  fold induction of YFR026C: 20.9 fold
  fold induction of YGR043C: 17 fold
  fold induction of YIL042C: 5 fold
  fold induction of YIL117C: 13 fold
  fold induction of YJL144W: 19.1 fold
  fold induction of YKL107W: 112 fold
  fold induction of YLR053C: 200 fold
  fold induction of YLR080W: 8.4 fold
  fold induction of YLR194C: 5.1 fold
  fold induction of YMR040W: 12.8 fold
  fold induction of YMR090W: 5.6 fold
  fold induction of YMR107W: 79 fold
  fold induction of YNL194C: 4.5 fold
  fold induction of YPS3 (YLR121C): 15 fold
Wildtype strain [4]; [9]
  fold induction (positive) or fold repression (negative) of HSP26 (YBR072W): 17 fold
  fold induction (positive) or fold repression (negative) of HXT5 (YHR096C): 50 fold
  fold induction (positive) or fold repression (negative) of YGR043C: 17 fold
  fold induction (positive) or fold repression (negative) of YMR107W: 40 fold
  fold induction (positive) or fold repression (negative) of YPS3 (YLR121C): 15 fold
alg7 heterozygous strain [5]
  sensitivity of strain to drug: sensitive
alg7 heterozygous strain [6]
  fold induction (positive) or fold repression (negative) of HXT5 (YHR096C): 1 fold
  fold induction (positive) or fold repression (negative) of YMR107W: 1 fold
[7]
  fold induction (positive) or fold repression (negative) of HSP26 (YBR072W): 1.4 fold
  fold induction (positive) or fold repression (negative) of HXT5 (YHR096C): 1 fold
  fold induction (positive) or fold repression (negative) of YMR107W: 1 fold
